This test has as its system BDF1 mice, P388 leukemia ip, median survival T/C. Kind of test: NCI In Vivo Anticancer Drug Screen. Data for tumor model P388 Leukemia (intraperitoneal) in B6D2F1 (BDF1) mice. To be noted: endpoint: median survival time, higher = longer survival. The essentials:
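Reported as T/C, where T is the survival measurement in dosed animals and C the same measurement in vehicle controls.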

Setting [1] is: dose: 100.0 mg/kg/injection, schedule: Q01DX010 (ip), vehicle: saline.
The mark [2] stands for this setting: dose: 400.0 mg/kg/injection, schedule: Q01DX010 (ip), vehicle: saline.
Setting [3] is: dose: 50.0 mg/kg/injection, schedule: Q04DX002 (ip), vehicle: saline with Tween-80.
Setting [4] is: dose: 50.0 mg/kg/injection, schedule: Q01DX009 (ip), vehicle: Klucel (hydroxypropylcellulose) (HPC).
Setting [5] is: dose: 100.0 mg/kg/injection, schedule: Q01DX009 (ip), vehicle: Klucel (hydroxypropylcellulose) (HPC).
The mark [6] stands for this setting: dose: 100.0 mg/kg/injection, schedule: Q04DX003 (ip), vehicle: saline.
[7] abbreviates: dose: 200.0 mg/kg/injection, schedule: Q01DX009 (ip), vehicle: Klucel (hydroxypropylcellulose) (HPC).
Setting [8] is: dose: 50.0 mg/kg/injection, schedule: Q01DX009 (ip), vehicle: saline with Tween-80.
[9] abbreviates: dose: 100.0 mg/kg/injection, schedule: Q04DX003 (ip), vehicle: saline with Tween-80.
Setting [10] is: dose: 200.0 mg/kg/injection, schedule: Q04DX003 (ip), vehicle: saline with Tween-80.
Where [11] appears, read: dose: 400.0 mg/kg/injection, schedule: Q04DX003 (ip), vehicle: saline with Tween-80.

This note sets out measurements from PubChem BioAssay AID328 (DTP/NCI, 2004).

The structures appear in SMILES notation. Several values for one entry are separate records, joined by “and”; a condition that tells them apart may be missing. Identical values can stand only once. Toxic doses and inconclusive results are not listed.

Turning to `C[C@H](N)C(=O)N[C@@H]1[C@H]2C(=C(O)C[C@@H](O)[C@@H]2O)C(=O)O[C@@H]1C`, the T/C under setting [1] is 162 % of control; the T/C (dose: 133.0 mg/kg/injection, schedule: Q04DX003 (ip), vehicle: saline) was 112 % of control; the T/C (dose: 266.0 mg/kg/injection, schedule: Q04DX003 (ip), vehicle: saline) was 119 % of control; the T/C under setting [2] is 162 % of control; the T/C (dose: 532.0 mg/kg/injection, schedule: Q04DX003 (ip), vehicle: saline) was 120 % of control; the T/C (dose: 800.0 mg/kg/injection, schedule: Q01DX010 (ip), vehicle: saline) was 175 % of control. In addition, the T/C (dose: 2428.0 mg/kg/injection, schedule: Q04DX003 (ip), vehicle: saline) was 166 % of control.

For the compound `CCC(c1ccc(OC)cc1)C(NCC(=O)NNC(=O)CNC(c1ccc(OC)cc1)C(CC)c1ccc(OC)cc1)c1ccc(OC)cc1` (configuration not stated), the T/C (dose: 12.5 mg/kg/injection, schedule: Q04DX002 (ip), vehicle: saline with Tween-80) is 110 % of control; the T/C (dose: 25.0 mg/kg/injection, schedule: Q04DX002 (ip), vehicle: saline with Tween-80) was 88 % of control; the T/C under setting [3] is 94 % of control.

`NC(COC(c1ccccc1)(c1ccccc1)c1ccccc1)C(=O)O` (configuration not stated): the T/C by setting is: under setting [4], 120 % of control; (dose: 65.0 mg/kg/injection, schedule: Q01DX009 (ip), vehicle: Klucel (hydroxypropylcellulose) (HPC)) 150 % of control; (dose: 85.0 mg/kg/injection, schedule: Q04DX003 (ip), vehicle: other) 120 % of control; under setting [5], 155 % of control and 160 % of control; under setting [6], 122 % of control; (dose: 150.0 mg/kg/injection, schedule: Q01DX009 (ip), vehicle: Klucel (hydroxypropylcellulose) (HPC)) 205 % of control. Besides, the T/C under setting [7] was 90 % of control; the T/C (dose: 200.0 mg/kg/injection, schedule: Q04DX003 (ip), vehicle: other) is 150 % of control; the T/C (dose: 300.0 mg/kg/injection, schedule: Q04DX003 (ip), vehicle: other) is 200 % of control.

Regarding `CCN(c1ccc(C=O)cc1)c1ccc([N+](=O)[O-])cc1[N+](=O)[O-]`, the T/C is, setting by setting: under setting [4], 99 % of control; under setting [5], 97 % of control; under setting [7], 97 % of control.

Regarding `CCCCCCCCCCCCCCCCCCCCCCCCCCCC(=O)OCC(O)CO` (configuration not stated), the T/C was 110 % of control (dose: 0.25 mg/kg/injection, schedule: Q01DX009 (ip), vehicle: saline + alcohol) and 105 % of control (dose: 1.0 mg/kg/injection, schedule: Q01DX009 (ip), vehicle: saline + alcohol).

In the case of `CC(C)CC(CC(C)C)NCC(C)OC(=O)c1ccc([N+](=O)[O-])cc1` (configuration not stated), the T/C reads like this: (dose: 50.0 mg/kg/injection, schedule: Q01DX009 (ip), vehicle: water) 106 % of control; (dose: 50.0 mg/kg/injection, schedule: Q04DX003 (ip), vehicle: water) 100 % of control; (dose: 100.0 mg/kg/injection, schedule: Q01DX009 (ip), vehicle: water) 92 % of control; (dose: 100.0 mg/kg/injection, schedule: Q04DX003 (ip), vehicle: water) 103 % of control; (dose: 200.0 mg/kg/injection, schedule: Q01DX009 (ip), vehicle: water) 103 % of control; (dose: 200.0 mg/kg/injection, schedule: Q04DX003 (ip), vehicle: water) 94 % of control. Besides, the T/C (dose: 400.0 mg/kg/injection, schedule: Q04DX003 (ip), vehicle: water) is 88 % of control.

With `Cc1cc(=O)n(Cc2ccco2)c(=S)[nH]1`, the T/C is 98 % of control (dose: 50.0 mg/kg/injection, schedule: Q01DX005 (ip), vehicle: saline with Tween-80) and 93 % of control (dose: 100.0 mg/kg/injection, schedule: Q01DX005 (ip), vehicle: saline with Tween-80).

Take `COc1ccc(NC(=S)N(CCC#N)C2CCCCC2)cc1`: the T/C runs as follows: (dose: 6.25 mg/kg/injection, schedule: Q01DX009 (ip), vehicle: saline with Tween-80) 86 % of control; (dose: 12.5 mg/kg/injection, schedule: Q01DX009 (ip), vehicle: saline with Tween-80) 100 % of control; (dose: 25.0 mg/kg/injection, schedule: Q01DX009 (ip), vehicle: saline with Tween-80) 104 % of control; under setting [8], 95 % of control.

As for `CCCCCn1cnc2c(=S)nc[nH]c21`, the T/C (dose: 100.0 mg/kg/injection, schedule: Q01DX009 (ip), vehicle: saline with Tween-80) is 90 % of control; the T/C (dose: 200.0 mg/kg/injection, schedule: Q01DX009 (ip), vehicle: saline with Tween-80) is 104 % of control; the T/C (dose: 400.0 mg/kg/injection, schedule: Q01DX009 (ip), vehicle: saline with Tween-80) is 90 % of control.

`CCC12C=CCN3CCC4(c5cc(C(CN6CCCCC6)c6cn(C)c7ccccc67)c(OC)cc5N(C)C4C(O)(C(=O)OC)C1OC(C)=O)C32` (configuration not stated): the T/C (dose: 4.0 mg/kg/injection, schedule: Q01DX009 (ip), vehicle: saline) was 104 % of control; the T/C (dose: 8.0 mg/kg/injection, schedule: Q01DX009 (ip), vehicle: saline) was 98 % of control; the T/C (dose: 16.0 mg/kg/injection, schedule: Q01DX009 (ip), vehicle: saline) was 98 % of control; the T/C (dose: 32.0 mg/kg/injection, schedule: Q01DX009 (ip), vehicle: saline) was 93 % of control and 116 % of control.

Regarding `CC(=O)O[C@H]1CC[C@H]2[C@@H]3CCC4=CC(=O)CC[C@]4(C)[C@H]3[C@H](OC(C)=O)C[C@]12C`, the T/C under setting [9] is 100 % of control, the T/C under setting [10] is 95 % of control and the T/C under setting [11] is 109 % of control.

As for `NC(Cn1ccc(=O)c(O)c1)C(=O)O` (configuration not stated), the T/C (dose: 50.0 mg/kg/injection, schedule: Q01DX009 (ip), vehicle: saline) is 95 % of control; the T/C (dose: 100.0 mg/kg/injection, schedule: Q01DX009 (ip), vehicle: saline) is 100 % of control; the T/C (dose: 200.0 mg/kg/injection, schedule: Q01DX009 (ip), vehicle: saline) is 108 % of control; the T/C (dose: 400.0 mg/kg/injection, schedule: Q01DX009 (ip), vehicle: saline) is 122 % of control.

For the compound `COC(=O)CCCCCC(O)C1CCC2OC(=O)CC21C` (configuration not stated), the T/C under setting [9] was 100 % of control, the T/C under setting [10] was 100 % of control and the T/C under setting [11] was 100 % of control.

Consider `CC(=Nc1ccccc1)C1=C(O)C(Cc2ccccc2)NC1=O` (configuration not stated), for which the T/C under setting [8] is 124 % of control.

For the compound `O=NN(CCF)C(=O)NC1CCS(=O)(=O)CC1`, the T/C was 115 % of control (dose: 0.15 mg/kg/injection, schedule: Q04DX003 (ip), vehicle: saline) and 120 % of control (dose: 0.3 mg/kg/injection, schedule: Q04DX003 (ip), vehicle: saline).

On to `CSc1c(C)[nH]c2c(C)cccc12`, for which the T/C by setting is: under setting [3], 100 % of control; (dose: 100.0 mg/kg/injection, schedule: Q04DX002 (ip), vehicle: saline with Tween-80) 100 % of control; (dose: 200.0 mg/kg/injection, schedule: Q04DX002 (ip), vehicle: saline with Tween-80) 105 % of control.

As to `CO[C@H]1/C=C/O[C@@]2(C)Oc3c(C)c(O)c4c(O)c(c(/C=N/N5CCN(C)CC5)c(O)c4c3C2=O)NC(=O)/C(C)=C\C=C\[C@H](C)[C@H](O)[C@@H](C)[C@@H](O)[C@@H](C)[C@H](OC(C)=O)[C@@H]1C`, the T/C is 109 % of control (dose: 50.0 mg/kg/injection, schedule: Q01DX010 (ip), vehicle: saline); 114 % of control under setting [1]; 109 % of control (dose: 200.0 mg/kg/injection, schedule: Q01DX010 (ip), vehicle: saline); 109 % of control under setting [2].

On to `CC(=O)CC(C)=O.CC(=O)CC(C)=O.CC(=O)CC(C)=O.[Ga]`, for which the T/C (dose: 25.0 mg/kg/injection, schedule: Q04DX003 (ip), vehicle: saline) is 100 % of control; the T/C (dose: 50.0 mg/kg/injection, schedule: Q04DX003 (ip), vehicle: saline) was 95 % of control; the T/C under setting [6] is 86 % of control.
